Test results from publication PMC2744866 (Journal of medicinal chemistry, 2009).
Entries after “also recorded” stand apart in the source; their conditions may differ.

Legend:
[1] = molecular target: T1, human recombinant BHMT (Homo sapiens, UniProt Q93088); assay: BHMT inhibition assay; assay type: biochemical; conditions: for inhibition of BHMT, in words: qualitative statement; for % Inhibition (average of triplicates): 20 μM inhibitor, 0.25 mM betaine, 0.1 mM DL-homocysteine, pH 7.5, 37 °C
T1 sequence (Q93088 1-406): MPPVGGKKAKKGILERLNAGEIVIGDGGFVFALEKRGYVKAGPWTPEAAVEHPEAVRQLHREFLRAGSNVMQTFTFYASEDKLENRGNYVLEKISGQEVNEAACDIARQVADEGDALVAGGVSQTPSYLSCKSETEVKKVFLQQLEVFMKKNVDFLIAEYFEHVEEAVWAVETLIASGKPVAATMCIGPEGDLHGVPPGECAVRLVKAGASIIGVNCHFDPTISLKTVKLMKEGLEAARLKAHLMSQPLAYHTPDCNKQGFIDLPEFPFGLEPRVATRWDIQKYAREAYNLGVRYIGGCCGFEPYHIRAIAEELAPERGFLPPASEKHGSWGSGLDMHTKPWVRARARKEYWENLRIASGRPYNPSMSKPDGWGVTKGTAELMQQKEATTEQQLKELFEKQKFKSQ

[2] = molecular target: T1, human recombinant BHMT; assay: Isothermal titration calorimetry of inhibitor binding to BHMT; conditions: ITC
[3] = 1H and 13C NMR pH titration; assay type: physicochemical; conditions: NMR titration over broad pH range
[4] = pH 7.5, read-out: % Inhibition (average of triplicates)

Structure (SMILES)	inhibition of BHMT, in words [1]	other results
C[N+](C)(CCCSCCC(N)C(=O)O)CC(=O)[O-] (racemic) [Compound 18, (RS)-2-{[3-(3-Amino-3-carboxypropylthio)propyl]dimethylammonio}acetate]	did not inhibit BHMT at all	
C[N+](C)(CCSCCC(N)C(=O)O)CC(=O)[O-] (racemic) [Compound 12, (RS)-2-{[2-(3-Amino-3-carboxypropylthio)ethyl]dimethylammonium}acetate]		% Inhibition (average of triplicates) [1]: very weak inhibition
NC(CCCSCCCC(=O)O)C(=O)O (racemic) [Compound 7, (RS)-2-Amino-5-(3-carboxypropylthio)pentanoic Acid]	low inhibitory potency	
NC(CCSCCCCC(=O)O)C(=O)O (stereo not shown) [Compound 1, reference compound]		inhibition at 1 µM [1, 4]: 97.6%; inhibition at 20 µM [1, 4]: 100%
CN(CCCSCCC(N)C(=O)O)CC(=O)O (racemic) [Compound 19, (RS)-2-Amino-4-{3-[(carboxymethyl)(methyl)amino]propylthio}butanoic Acid]	only a modest inhibitor	
C[C@@H](CCSCC[C@@H](N)C(=O)O)CC(=O)O (racemic) [Compound 20]	highly potent inhibitors; also recorded: equipotent	
NC(CCSCSCCC(=O)O)C(=O)O (racemic) [Compound 6, (RS)-2-Amino-4-[(2-carboxyethylthio)methylthio]butanoic Acid]	moderate inhibitory potency	
CC(C)(CCSCCC(N)C(=O)O)CC(=O)O (racemic) [Compound 21]	highly potent inhibitors	enthalpic contribution ΔH ([2]; 25 °C, pH 7.5): -29.5 ± 1.2 kcal/mol; entropic contribution −TΔS ([2]; 25 °C, pH 7.5): 19.6 ± 1.3 kcal/mol; association constant Ka ([2]; 25 °C, pH 7.5, S-enantiomer): (2.0 ± 0.6) × 10^7 M^−1; stoichiometry of the main interaction ([2]; inhibitor per BHMT monomer): 1.1 ± 0.1
NC(CC[Se]CCCCC(=O)O)C(=O)O (racemic) [Compound 9, (RS)-5-(3-Amino-3-carboxypropylselanyl)pentanoic Acid]	strongly inhibited	fold weaker than compound 1 ([1]; compared with reference inhibitor 1): 5 fold
NC(CCSSCCCC(=O)O)C(=O)O (racemic) [Compound 5, (RS)-2-Amino-4-[(3-carboxypropyl)disulfanyl]butanoic acid]	very weak inhibitor	
CN(CCSCCC(N)C(=O)O)CC(=O)O (racemic) [Compound 13, (RS)-2-Amino-4-{2-[(carboxymethyl)(methyl)amino]ethylthio}-butanoic Acid]	promising, but still moderate, inhibition	pK2 of secondary/tertiary amino group [3]: ~9.5
NC(CCSCCNCC(=O)O)C(=O)O (racemic) [Compound 16, (RS)-2-Amino-4-[2-(carboxymethylamino)ethylthio]butanoic Acid]		pK2 of secondary/tertiary amino group [3]: ~9.5
NC(CCOCCCCC(=O)O)C(=O)O (racemic) [Compound 8, (RS)-5-(3-Amino-3-carboxypropoxy)pentanoic Acid]	almost inactive	
C[N+](C)(CSCCC(N)C(=O)O)CC(=O)[O-] (racemic) [Compound 11, (RS)-2-{[(3-Amino-3-carboxypropylthio)methyl]dimethylammonium}acetate]		% Inhibition (average of triplicates) [1]: completely inactive
NC(CCCCCCCC(=O)O)C(=O)O (racemic) [Compound 10, (RS)-2-Aminodecanedioic Acid]	almost inactive	
